Test results reported in publication PMC4587935, “Structure and Sialyllactose Binding of the Carboxy-Terminal Head Domain of the Fibre from a Siadenovirus, Turkey Adenovirus 3” (PLoS ONE, 2015).

Columns and labels:
[1] = tested on: His-tagged TAdV-3 fibre head protein; experiment: Glycan microarray binding assay; set-up: species or system turkey adenovirus 3 (TAdV-3); details: for inhibition of fibre head binding to the glycan microarray: in the presence of 100 mM sugar; for fluorescence intensity on glycan microarray: binding threshold approximately 1,600 RFU (five times background)
Method: The proteins were profiled on neoglycoconjugate microarrays to identify potential glycan ligands for TAdV-3 fibre head proteins. The microarrays were constructed as previously described and presented 71 different simple to complex glycans on glycoproteins or attached to protein backbones through linkers (S1 Table). Several viral protein concentrations were titrated in Tris-buffered saline supplemented with Ca^2+ and Mg^2+ ions (TBS; 20 mM Tris-HCl, 100 mM NaCl, 1 mM CaCl2, 1 mM MgCl2, pH 7.2) and with 0.05% Tween 20 (TBS-T). It was determined that 10 μg/ml in TBS-T was the concentration for optimal signal to noise ratio. Similarly, the concentration of the anti-6XHis IgG-CF640R (Sigma Aldrich, Tres Cantos, Spain) monoclonal antibody for detection of viral protein binding was optimized and a 1 in 750 dilution in TBS-T was subsequently used.
Two-step incubations were carried out as previously described with minor modifications. First, the viral proteins were incubated on the microarray slides for 1 h at 23°C and 4 rpm. The microarray slides and gaskets were then separated while submerged under TBS-T, washed 3 times in TBS-T for 2 min each with gentle agitation in a Coplin jar, with a final 2 min wash in TBS. After centrifuging to dry the slides (1,500 rpm, 5 min), all subsequent steps were carried out in the dark. The microarray slides were incubated with the fluorescently labelled anti-6XHis IgG as in the first step, washed and dried by centrifugation and scanned immediately on an Agilent G2505 microarray scanner using the Cy5 channel (633 nm excitation, 80% PMT, 5 mm resolution). All experiments were carried out in triplicate and binding inhibition assays were performed in parallel in the presence of 100 mM galactose and lactose to verify specific binding. Data extraction and analysis was carried out as previously described. Binding was taken as above an experimental threshold of five times the background, which was approximately 1,600 relative fluorescence units (RFU) in this case.

[2] = target: TAdV-3 fiber head mutant K439A (avirulent context) (Turkey adenovirus 3, UniProt A0ABF7PFF5, K439A); experiment: biochemical; type: binding, turkey adenovirus 3 (TAdV-3)
[3] = target: T1, TAdV-3 fibre head (virulent) (Turkey adenovirus 3, UniProt Q9YUQ4); experiment: Isothermal titration calorimetry (ITC), virulent fibre head; type: binding, turkey adenovirus 3 (TAdV-3); details: 25°C
T1 sequence (Q9YUQ4 304-454): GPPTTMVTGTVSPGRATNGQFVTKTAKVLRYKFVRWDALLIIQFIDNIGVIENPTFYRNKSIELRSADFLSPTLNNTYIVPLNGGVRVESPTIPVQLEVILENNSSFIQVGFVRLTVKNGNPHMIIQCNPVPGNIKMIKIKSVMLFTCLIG
Method: (§1) Isothermal titration calorimetry (ITC) was performed at 25°C with a Microcal VP-ITC microcalorimeter (GE Healthcare, Madrid, Spain). The proteins were exhaustively dialyzed against the appropriate buffer (10 mM MES-NaOH pH 6.0 or 20 mM Tris-HCl, 100 mM NaCl pH 7.2), and sialyllactose solutions were prepared in the final dialysate. Titrations were performed by stepwise injections of the 3'- or 6'-sialyllactose-containing solution (21–40 mM) into the reaction cell loaded with the protein at concentrations of 78–474 μM. When required, a second set of injections followed the first one after refilling the injection pipette with the same sialyllactose solution. The CONCAT32 (GE Healthcare) program was used to concatenate the raw data of both series. The heat of ligand dilution was determined separately and subtracted from the total heat produced following each injection. Protein concentrations were determined spectrophotometrically at 280 nm using the predicted monomeric molar extinction coefficient (10,095 OD cm^-1 M^-1). Titration data were analyzed with the ORIGIN software (GE Healthcare).

[4] = target: TAdV-3 fiber head mutant N407A (avirulent context) (Turkey adenovirus 3, UniProt A0ABF7PFF5, N407A); experiment: biochemical; type: binding, turkey adenovirus 3 (TAdV-3)
[5] = target: TAdV-3 fiber head mutant E392A (avirulent context) (Turkey adenovirus 3, UniProt A0ABF7PFF5, E392A); experiment: biochemical; type: binding, turkey adenovirus 3 (TAdV-3)
[6] = tested on: virulent TAdV-3 fibre head; experiment: Saturation transfer difference NMR (STD-NMR), virulent variant; type: binding, turkey adenovirus 3 (TAdV-3); details: 1.5 mM ligand, 15 μM protein, phosphate pH 7.7, 298 K
Method: (§2) Saturation transfer difference nuclear magnetic resonance spectroscopy (STD-NMR) experiments were performed at 298 K in an AVANCE 500 MHz spectrometer (Bruker, Rivas Vaciamadrid, Spain) equipped with a 5 mm inverse probe head. STD experiments were performed in fully deuterated 10 mM potassium phosphate pH 7.7. Samples contained 1.5 mM of either 3'- or 6'-sialyllactose and 15 μM of either the virulent or the avirulent versions of TAdV-3 fibre head. The protein was saturated on-resonance at 0.5 ppm and off-resonance at 100 ppm with a train of Gaussian-shaped pulses of 50 ms each, totalling an irradiation time of 2 s. A T2 relaxation filter consisting of a 15 ms 5 kHz spin-lock was used to reduce the protein background signals. STD spectra were obtained by subtracting the on-resonance spectra from the off-resonance spectra. STD intensities were measured comparing each STD spectrum with the correspondent off-resonance spectrum and normalizing to the ligand peak receiving the highest degree of saturation (in all cases, the 5''-N-acetyl). The resonances of 3'- or 6'-sialyllactose were assigned by standard procedures (^1H-^1H TOCSY 70 ms, ^1H-^1H ROESY 600 ms and phase-sensitive ^1H-^13C HSQC). Data were analyzed with TOPSPIN (Bruker) and figures were made with MESTRENOVA (Mestrelab Research, Santiago de Compostela, Spain).

[7] = target: TAdV-3 fiber head mutant K421A (avirulent context); details: ITC, 25°C, pH 6.0; n.o. = no binding observed
[8] = target: TAdV-3 fibre head (avirulent) (Turkey adenovirus 3, UniProt A0ABF7PFF5); experiment: Isothermal titration calorimetry (ITC), avirulent fibre head; type: binding, turkey adenovirus 3 (TAdV-3); details: 25°C
Method: as §1

[9] = tested on: avirulent TAdV-3 fibre head; experiment: Saturation transfer difference NMR (STD-NMR), avirulent variant; type: binding, turkey adenovirus 3 (TAdV-3); details: 1.5 mM ligand, 15 μM protein, phosphate pH 7.7, 298 K
Method: as §2

[10] = target: TAdV-3 fiber head mutant R368A (avirulent context) (Turkey adenovirus 3, UniProt A0ABF7PFF5, R368A); experiment: biochemical; type: binding, turkey adenovirus 3 (TAdV-3)
[11] = 10 μg/ml protein in TBS-T pH 7.2
[12] = pH 6.0, three independent sites per trimer

## OC[C@H]1O[C@@H](O[C@H]2[C@H](O)[C@@H](O)C(O)O[C@@H]2CO)[C@H](O)[C@@H](O)[C@H]1O (mixture of isomers) [lactose]
[1]
  inhibition of fibre head binding to the glycan microarray: No binding inhibition

## CC(=O)NC1C(O)CC(OC2C(O)C(CO)OC(OC3C(CO)OC(O)C(O)C3O)C2O)(C(=O)O)OC1C(O)C(O)CO (stereo not shown) [3'-sialyllactose]
[1]; [11]
  fluorescence intensity on glycan microarray: 5,000 RFU
[2]
  Kd: 3.2 ± 0.2 mM
[2]; ITC, 25°C, pH 6.0
  - ΔH: 3.9 ± 0.1 kcal/mol of sites
  - ΔS: 1.7 ± 0.2 cal/mol of sites/deg
[3]; pH 6.0
  - ΔH: 1.83 ± 0.03 kcal/mol of sites
  - ΔS: -4.19 ± 0.07 cal/mol of sites/deg
[3]; [12]
  Kd: 5.5 ± 0.1 mM
[3]; pH 7.2
  Kd: ~37 mM
[4]
  Kd: 2.77 ± 0.04 mM
[4]; ITC, 25°C, pH 6.0
  - ΔH: 4.66 ± 0.04 kcal/mol of sites
  - ΔS: 3.9 ± 0.1 cal/mol of sites/deg
[5]
  Kd: ~20 mM
[6]
  STD-NMR interaction (saturation transfer): saturation transfer was observed
[7]
  Kd: n.o. ^d
[8]; pH 6.0
  - ΔH: 4.43 ± 0.01 kcal/mol of sites
  - ΔS: 3.70 ± 0.03 cal/mol of sites/deg
[8]; [12]
  Kd: 3.64 ± 0.01 mM
[8]; pH 7.2
  Kd: ~24 mM
[9]
  STD-NMR interaction (saturation transfer): saturation transfer was observed
[10]
  Kd: 3.23 ± 0.03 mM
[10]; ITC, 25°C, pH 6.0
  - ΔH: 3.86 ± 0.02 kcal/mol of sites
  - ΔS: 1.54 ± 0.05 cal/mol of sites/deg

## CC(=O)NC1C(O)CC(OCC2OC(OC3C(CO)OC(O)C(O)C3O)C(O)C(O)C2O)(C(=O)O)OC1C(O)C(O)CO (stereo not shown) [6'-sialyllactose]
[1]; [11]
  fluorescence intensity on glycan microarray: 6,100 RFU
[3]; [12]
  Kd: ~20 mM
[3]; pH 7.2
  Kd: ~28 mM
[6]
  STD-NMR interaction (saturation transfer): saturation transfer was observed
[8]; [12]
  Kd: ~7 mM
[8]; pH 7.2
  Kd: ~23 mM
[9]
  STD-NMR interaction (saturation transfer): saturation transfer was observed

## O=C[C@H](O)[C@@H](O)[C@@H](O)[C@H](O)CO [galactose]
[1]
  inhibition of fibre head binding to the glycan microarray: No binding inhibition

## O=C[C@H](O)[C@@H](O)[C@H](O)CO [xylose]
[6]
  STD-NMR interaction (saturation transfer): no interaction with the proteins could be measured
[9]
  STD-NMR interaction (saturation transfer): no interaction with the proteins could be measured

## transferrin: glycoprotein with 3'- and 6'-sialyl-N-acetyllactosamine terminal structures
[1]; 10 μg/ml protein in TBS-T pH 7.2, threshold five times background
  binding on glycan microarray (in words): did not bind
